Source: patent US8492347B2, “Peptide for induction of immune tolerance as treatment for systemic lupus erythematosus” (The Regents of the University of California, priority 2007, dated 2013)
Where no end group is shown, it is not given here. [ ]: non-standard residue; d: D form.

How the values were obtained:
[1] = tested on: naïve BWF1 CD4+ CD25− helper T cells cultured with naïve BWF1 B cells; assay: anti-DNA antibody-forming cells in cultures of BWF1 B cells plus CD4+ CD25− helper T cells after i.v. peptide; type: in vivo, mice
Method: FIG. 1 provides a bar graph of data showing that the intravenous administration of either 500 or 250 ug of D-pCons is effective in suppressing anti-DNA antibody production by naïve BWF1 CD4+ CD25− helper T cells cultured with naïve BWF1 B cells. The numbers of splenic B cells making IgG anti-DNA dropped from 65 per 10^6 B cells in the untreated group to 30-32 in the tolerized groups.
FIG. 2 provides a bar graph of data from studies of L-pCons and D-pCons. Both D-pCons and L-pCons peptides were given once i.v. and spleen cells harvested 2 weeks later. Note that for L-pCons, the combination of naïve B cells plus CD4+ CD25− helper T cells gave a mean of 160 anti-DNA antibody-forming cells per 10^6 B cells (column 3), whereas addition of CD4+ CD25+ Treg from tolerized mice to the culture reduced the AFC to 25 per 10^6 B cells (column 4). These differences were statistically significant, p<0.001. Note also that the suppression was abrogated by incubation of the cultures with antibodies to GITR (column 6) or TGFb-LAP (column 7), but not by CTLA4-Ig (column 8).
For tolerance induction, ten-to-twelve week-old BWF1 mice received a single i.v. dose of 1 mg of one of the peptides, dissolved in saline, as reported previously (see, e.g. Singh et al., J Clin Invest 1995; 96:2990-6). Controls in selected experiments were either treated with saline or control peptides.
Assays were performed to measure anti-DNA Ab according to art accepted protocols (see, e.g. Singh et al., J Clin Invest 1995; 96:2990-6; Hahn et al., Arthritis Rheum 2001; 44:432-41; La Cava et al., J Immunol 2004; 173:3542-8; Hahn et al., Ann NY Acad Sci 2005; 1051:433-41; Hahn et al., J Immunol 2005; 175:7728-37; Singh et al., J Immunol 2007; 178:7649-57). […] After 5 days, culture supernatants were collected, concentrated, and analyzed for anti-DNA IgG by ELISA. […]

BWF1 mice [2] = assay: anti-DNA antibodies (ELISA) in mice fed peptide; type: in vivo; settings: 250 ug fed 5 days out of each 30 from age 10 weeks
Method: (§1) Anti-DNA antibodies were measured by ELISA and proteinuria by Azostix (see, e.g. Yang et al., J. I., 2003, 171: 2142-2153).
(§2) We also observed the clinical effects of feeding either D- or L-peptides at the low, medium and high doses of each. Because mRNA analysis of mesenteric lymph nodes provided evidence that high dose D-peptide would induce tolerance, we began new experiments to compare high dose (250 ug) feedings of D-peptide to the same dose of L-peptide. A control group was fed saline on the same schedule as the peptide feedings, which is daily for 5 days out of each 30 days. Each group contains 14 mice; treatment was begun at age 10 weeks. Observed effects on anti-DNA are as follows. […] Note that the saline control group is lower than the positive control anti-DNA, which is serum from BWF1 mice with heavy proteinuria and imminent death. Thus, the saline control has not reached the expected high level at this point but should do so in the next 2 months.

BWF1 mice [3] = assay: proteinuria (Azostix) in mice fed peptide; type: in vivo; settings: 250 ug fed 5 days out of each 30 from age 10 weeks; for proteinuria vs saline: at 34 weeks
Method: as §1, §2
Observed effects on Proteinuria are as follows.

Row | Sequence | anti-DNA antibody-forming cells (AFC) ([1]; peptide once i.v., spleen cells 2 weeks later, CD4+ CD25+ Treg from tolerized mice added to culture, 160 without Treg, p<0.001) | anti-DNA antibody levels vs saline (BWF1 mice [2]; at 34 weeks, one-tailed t test, listed as L-peptide) | proteinuria vs saline (BWF1 mice [3]; listed as L-peptide) | suppression of anti-DNA antibody production ([1]; 125 ug dose i.v.) | numbers of splenic B cells making IgG anti-DNA ([1]; 500 or 250 ug i.v. (tolerized groups), untreated group 65) | anti-DNA antibody levels vs saline (BWF1 mice [2]; at 24 weeks of age, not statistically significant) | anti-DNA antibody levels vs saline (BWF1 mice [2]; at 34 weeks, one-tailed t test, listed as D-peptide) | mean level of proteinuria (zero to 4+) (BWF1 mice [3]; at 24 weeks of age) | proteinuria vs saline (BWF1 mice [3]; listed as D-peptide)
1 | FIEWNKLRFRQGLEW [L-pCons] | 25 per 10^6 B cells | significantly lower than saline (p=0.03) | lower in the L-peptide group (p=0.01) | – | – | – | – | – | –
2 | FIEWNKLRFRQGLEW ([dF][dI][dE][dW][dN][dK][dL][dR][dF][dR][dQ]G[dL][dE][dW]) [D-pCons] | – | – | – | not effective in inducing suppression | 30-32 per 10^6 B cells | trends to lower anti-DNA antibody levels | borderline (p=0.17 by one-tailed t test) | no differences in mean level of proteinuria | lower in the D-peptide group (p=0.18)
